Source: PubChem BioAssay (NCI)
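These data come from cells grown in 96-well plates and exposed to compound for 48 hours at five concentrations. At the TGI there is no net growth.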

Key:
Test in all cases: NCI-60 cell line screen, 48 h
CCRF-CEM leukemia = system: CCRF-CEM leukemia
T-47D breast = system: T-47D breast
TK-10 renal = system: TK-10 renal
OVCAR-5 ovarian = system: OVCAR-5 ovarian
MDA-N = system: MDA-N
SNB-75 CNS = system: SNB-75 CNS
SW-620 colon = system: SW-620 colon
SK-MEL-5 melanoma = system: SK-MEL-5 melanoma
LOX IMVI melanoma = system: LOX IMVI melanoma
SK-MEL-2 melanoma = system: SK-MEL-2 melanoma
UACC-257 melanoma = system: UACC-257 melanoma
HCC-2998 colon = system: HCC-2998 colon
RXF 393 renal = system: RXF 393 renal
SNB-19 CNS = system: SNB-19 CNS
NCI-H23 lung = system: NCI-H23 lung
HOP-62 NSCLC = system: HOP-62 NSCLC
UO-31 renal = system: UO-31 renal
NCI/ADR-RES ovarian = system: NCI/ADR-RES ovarian
SR leukemia = system: SR leukemia

SMILES	TGI (CCRF-CEM leukemia)	TGI (T-47D breast)	TGI (TK-10 renal)	TGI (OVCAR-5 ovarian)	TGI (MDA-N)	TGI (SNB-75 CNS)	TGI (SW-620 colon)	TGI (SK-MEL-5 melanoma)	TGI (LOX IMVI melanoma)	TGI (SK-MEL-2 melanoma)	TGI (UACC-257 melanoma)	TGI (HCC-2998 colon)	TGI (RXF 393 renal)	TGI (SNB-19 CNS)	TGI (NCI-H23 lung)	TGI (HOP-62 NSCLC)	TGI (UO-31 renal)	TGI (NCI/ADR-RES ovarian)	TGI (SR leukemia)
C/C(=C\[C@H]1C[C@@H]([C@@H]2CC[C@]34C[C@]23C=C[C@@H]2[C@@]3(C)CC=C5C[C@@H](c6ccccc6)OC[C@]5(C)[C@@H]3C[C@@H](O)[C@]24C)C(=O)O1)CO	> 100 µM	> 100 µM	> 56 µM	34.2 µM	13.2 µM	92 µM	> 100 µM	2.76 µM	> 100 µM	> 100 µM	30.7 µM	> 26.4 µM	> 100 µM	> 86.7 µM	36 µM	> 100 µM	9.54 µM	> 100 µM	
O=C1c2cccnc2-c2nccc3ccnc1c23	0.156 µM	1.77 µM		4.2 µM	0.465 µM	5.92 µM	1.78 µM	1.84 µM	2.22 µM	4.64 µM	2.27 µM	3.41 µM	2.52 µM	10.9 µM	2.11 µM	7.95 µM	3.16 µM		
O=C1/C(=C/c2cccc([N+](=O)[O-])c2)N=C(c2ccccc2)N1c1ccc2c(c1)Sc1cc(N3C(=O)/C(=C/c4cccc([N+](=O)[O-])c4)N=C3c3ccccc3)ccc1N2	55.3 µM	80 µM	39.4 µM	35.8 µM	35 µM	34.3 µM	> 100 µM	31 µM	74.1 µM	39.9 µM	37.5 µM	> 100 µM	62.2 µM	40.2 µM	92.4 µM	49.5 µM	> 100 µM	> 100 µM	
O=C1CCC2(c3ccc(F)cc3)Nc3ncncc3N12 (configuration not stated)	> 10 µM		> 10 µM	> 10 µM	> 10 µM	> 10 µM	> 10 µM		> 10 µM	> 10 µM	> 10 µM	> 10 µM		> 10 µM	> 10 µM		> 10 µM	> 10 µM	> 10 µM
COc1ccc(-n2nnnc2C2(Nc3ccccc3)CCN(Cc3ccccc3)CC2)cc1	> 100 µM	45.2 µM	40.9 µM	48.8 µM		44.7 µM	38.3 µM	24.6 µM	24 µM		28.9 µM	14 µM	33.8 µM	68.5 µM	57.9 µM	56.2 µM	38.9 µM	51 µM	> 100 µM
CC1=NN(c2ccccc2)C(=O)C1C(=O)C(=O)Nc1ccc(C)cc1C (configuration not stated)	> 100 µM	> 100 µM	> 100 µM	> 100 µM		> 100 µM	> 100 µM	> 100 µM	> 100 µM	> 100 µM	> 100 µM	> 100 µM	> 100 µM	> 100 µM	> 100 µM	> 100 µM	> 100 µM	> 100 µM	> 100 µM
COC1=CC(=O)C2[C@H]3Cc4ccccc4[C@H]3C2(C)C1=O (some centres not stated)	> 100 µM		> 100 µM	> 100 µM		> 100 µM	> 100 µM	> 100 µM	> 100 µM	> 100 µM	> 100 µM	> 100 µM	> 100 µM	> 100 µM	> 100 µM	> 100 µM	> 100 µM		> 100 µM
O=C1NCN(c2ccccc2)C12CCN(CCCSc1ccc(F)cc1)CC2	> 71.4 µM	> 100 µM	99.1 µM	> 100 µM		> 86.1 µM	> 100 µM	17.9 µM	37.1 µM	43.3 µM	8.21 µM	67.2 µM	> 100 µM	> 100 µM	97.3 µM	97 µM	> 100 µM	> 100 µM	> 81.7 µM
O=C1CSc2ccncc2N1	> 100 µM		> 100 µM	> 100 µM		> 100 µM	> 100 µM	> 100 µM	> 100 µM	> 100 µM	> 100 µM	> 100 µM	> 100 µM	> 100 µM	> 100 µM	> 100 µM	> 100 µM		> 100 µM
O=C(CN1C(=O)c2ccccc2C1=O)OCC1CCCN2CCCCC12 (configuration not stated)	> 100 µM	> 100 µM	> 100 µM		> 100 µM	> 100 µM	> 100 µM	> 100 µM	> 100 µM	> 100 µM	> 100 µM	> 100 µM	> 100 µM	> 100 µM	> 100 µM		> 100 µM	> 100 µM	
CCOC(=O)c1cc(C2(OC)CCN(Cc3ccccc3)C2=O)c(-c2cc(C)no2)[nH]1 (configuration not stated)		> 100 µM	> 100 µM	> 100 µM	> 100 µM	> 100 µM	> 100 µM	> 100 µM		> 100 µM	> 100 µM	> 100 µM	> 100 µM	> 100 µM	> 100 µM	> 100 µM	> 100 µM	> 100 µM	
COC(=O)c1c/c(=N\NC(=O)CC(=O)Nc2ccc(C)cc2)c2ccccc2o1	> 100 µM		> 100 µM	> 100 µM		> 100 µM	> 100 µM	> 100 µM	> 100 µM	> 100 µM	> 100 µM		> 100 µM	> 100 µM	> 100 µM	> 100 µM	> 100 µM		> 100 µM
C=CCn1c(=S)sc2c(=O)[nH]cnc21	> 100 µM		> 100 µM	> 100 µM		> 100 µM	> 100 µM	> 100 µM	> 100 µM	> 100 µM	> 100 µM	> 100 µM		> 100 µM	> 100 µM	> 100 µM	> 100 µM		> 100 µM
COC(=O)[C@]1(C)CCC[C@]2(C)C3CC4OOC3(C=C4C(C)C)CCC21 (some centres not stated)	14 µM		82.1 µM	41.5 µM			34.8 µM	29.6 µM	11.5 µM	31.5 µM	32 µM	30.4 µM		31.3 µM	32.8 µM	61.5 µM	30.3 µM		26.6 µM
COc1ccc(N2C(=O)CC(c3c[nH]c4ccccc34)C2=O)cc1 (configuration not stated)	> 100 µM		> 100 µM	> 100 µM	> 100 µM		> 100 µM	> 100 µM	> 100 µM	> 100 µM	> 100 µM	> 100 µM	> 100 µM	> 100 µM	> 100 µM	> 100 µM	> 100 µM	> 100 µM	> 100 µM
CCCCC/C(=N\c1nc[nH]c1C(N)=O)OCC	> 100 µM		> 100 µM	> 100 µM	> 100 µM		> 100 µM	> 100 µM	> 100 µM	> 100 µM	> 100 µM	> 100 µM	> 100 µM	> 100 µM	> 100 µM	> 100 µM	> 100 µM	> 100 µM	> 100 µM
O=C(NC1CCN(Cc2ccccc2)CC1)c1ccccc1I	86.2 µM	66.1 µM	63.6 µM	58 µM			38.9 µM	31 µM	32.6 µM	48.7 µM	38 µM		> 100 µM	> 100 µM	72.1 µM	37.9 µM	30.1 µM	92.3 µM	> 100 µM
Cn1c(C2CC(C)(C)c3c2c2ccccc2n3C)cc2ccccc21 (configuration not stated)	> 304 µM		> 304 µM	> 304 µM			> 304 µM	> 304 µM	> 304 µM	> 304 µM	> 304 µM	> 304 µM	> 304 µM	> 304 µM	> 304 µM	> 304 µM			> 304 µM
CC1(C)OC([C@H](O)CO)C([C@H]2NCCS2)O1 (some centres not stated)	> 100 µM	> 100 µM	> 100 µM	> 100 µM		> 100 µM	> 100 µM	> 100 µM	> 100 µM	> 100 µM	> 100 µM	> 100 µM	> 100 µM	> 100 µM	> 100 µM	> 100 µM	> 100 µM	> 100 µM	> 100 µM
COc1ccc(C2C3=C(CCCC3=O)N(c3ccccc3)C3=C2C(=O)CCC3)cc1	> 100 µM		> 100 µM	> 100 µM		> 100 µM	> 100 µM		> 100 µM				78.7 µM	> 100 µM	> 100 µM		> 100 µM	> 100 µM	> 100 µM
CC[C@@H]1C[C@@H](O)[C@@H]2[C@H](O)[C@H](O)CN2C1	> 100 µM	> 100 µM	> 100 µM	> 100 µM	> 100 µM	> 100 µM	> 100 µM	> 100 µM	> 100 µM	> 100 µM	> 100 µM	> 100 µM		> 100 µM	> 100 µM		> 100 µM	> 100 µM	
Cc1ccccc1Nc1cn(CCOc2ccccc2)c(=O)n(CCOc2ccccc2)c1=O	> 100 µM			> 100 µM	> 100 µM		> 100 µM	> 100 µM	> 100 µM		> 100 µM	> 100 µM	> 100 µM		> 100 µM	> 100 µM	> 100 µM	> 100 µM	
CCCN1CN(C(C(=O)N[C@@H]2C(=O)N3C(C(=O)O)=C(C)CSC23)c2ccccc2)CSC1=S (some centres not stated)	> 100 µM		> 100 µM	> 100 µM		> 100 µM		> 100 µM	> 100 µM	> 100 µM	> 100 µM		82.5 µM	> 100 µM	> 100 µM	> 100 µM	> 100 µM		
CC1OC2OC3C(OCC(O)C3O)OC(=O)[C@]34CCC(C)(C)CC3C3=CCC5[C@@]6(C)C[C@H](O)[C@H](OC7OC(CO)C(O)C(O)C7OC7OC(COC(=O)CC(C)(O)CC(=O)OC1C(O)C2O)C(O)C(O)C7O)[C@@](C)(CO)C6CC[C@@]5(C)[C@]3(C)CC4 (some centres not stated)		7.23 µM	2.89 µM	2.85 µM	2.73 µM	2.89 µM	2.44 µM	2.34 µM	2.91 µM	2.85 µM	2.64 µM	2.63 µM		3.18 µM	3.08 µM	2.69 µM	2.52 µM	11.9 µM	
N=c1c2ccccc2nc2oc3ccc(Cl)cc3n12	> 100 µM		34.9 µM	47.1 µM	> 100 µM	23.6 µM	> 100 µM	> 100 µM	26.8 µM	51.3 µM	> 100 µM	> 100 µM	26.1 µM	> 100 µM	34.2 µM	19.2 µM	32.9 µM	> 100 µM	> 100 µM
CC(C)(C)OC(=O)N1C(=O)OC[C@@H]2C=C[C@@H]21	> 100 µM	> 100 µM	> 100 µM	> 100 µM	> 100 µM		> 100 µM	> 100 µM	> 100 µM	> 100 µM	> 100 µM		> 100 µM	> 100 µM	> 100 µM	> 100 µM		> 100 µM	
O=C1c2ccc3ccccc3c2CCC1N1CCCCC1 (configuration not stated)		54.3 µM	29.6 µM	37.9 µM		34.3 µM	34.5 µM	30.7 µM	33.7 µM	44.4 µM	35 µM		46.5 µM	40.8 µM	40.2 µM	34 µM	29.1 µM	46.3 µM	36.6 µM
N.N.N.N.O=S(=O)([O-])[O-].[Co+3].[OH3+].[OH3+]	> 100 µM		> 100 µM	> 100 µM		> 100 µM	> 100 µM	> 100 µM	> 100 µM	> 100 µM	> 100 µM			> 100 µM	> 100 µM	> 100 µM	> 100 µM		
